Laboratory results taken from patent publication US20060089400A1, “Novel spiro ketone and carboxylic acid derivatives as specific inhibitors for (po3h2) ser/(po3h2)thr-pro-specific peptidyl-prolylcis/trans-isomerases” (The Vernalis Group of Companies, priority 2002, published 2006).

Biological target: T1, human Pin1 (recombinant from E. coli) (Homo sapiens, UniProt Q13526)
T1 construct: made in house; host or cells: E. coli
Assay: protease-coupled PPIase assay, inhibition of hPin1
Type: biochemical
Conditions: protease-coupled PPlase assay; substrate Ac-Ala-Ala-(PO3H2)Ser-Pro-Arg-(4-)nitroanilide; trypsin; 2 nM enzyme; 35 mM HEPES pH 7.8; 10° C.; 5 min preincubation; read-out: hPin1-inhibition K1
Text: As described in example 1, the peptidyl-prolyl-cis/trans-isomerase activity can be determined in the so-called protease coupled PPlase assay with the help of isomer-specific proteolysis and the suitable oligopeptide substrates and isomer-specific proteases. Other processes for the detection of PPlase activity are e.g. observing isomer-specific differences with respect to spectroscopic properties, their mobilities or the foldback catalysis of other proteins as well as isomer-specific chemical compounds when recording core resonance spectra.
If adding active components to one of the test systems listed above leads to a measurable decrease in the reaction speed catalysed by the respective PPlase, these active components are classed PPlase inhibitors, as is exemplarily shown in example 1. Assessment of the PPlase specificity of the inhibitor is carried out by testing different PPlases in the assay. By varying the concentration of the inhibitor and assessing the results measured with conventional processes, the corresponding inhibition constant (KI-value) can be determined. The concentration of the inhibitor which inhibits the PPlase-induced catalysis by 50% is called IC50-value.
Determining the inhibition constants of the selected compound according to the invention 1′,2′,3′H-spiro[indene-3′,3-(3H-5-methoxy-benzofurane-2-one)] vis-à-vis the PPlase hPinl by protease-coupled PPlase assay: • Buffer: 35 mM HEPES (pH 7.8), 1,200 μl • Substrate: Ac-Ala-Ala-(PO3H2)Ser-Pro-Arg-(4-)nitroanilide stock solution 10 mg/ml in 35 mM Hepes (pH 7.8), • Auxiliary protease: trypsin (Roth), stock solution 10 mg/ml in 35 mM Hepes (ph 7.8), concentration in the solution for measuring 0.34 mg/ml • Enzyme: human Pin1 (recombinant from E. coli), stock solution 0.55 μM, concentration in the solution for measuring: 2 nM • Effectors: effector stock solution 10 mM in DMSO, concentration in the solution for measuring between 1,000 and 0.01 μM • Temperature: 10° C.
In the incubation solution, the effectors were preincubated with the enzyme for 5 min, then 3.5 μl of the auxiliary protease trypsin were added and the reaction was started immediately afterwards by adding 3.5 μl substrate. The reaction was monitored at a wave length of 390 nm with the measuring instrument Hewlett Packard UVNIS spectrophotometer HP 8452A. The kinetic analysis of the data was carried out by “SigmaPlot” (Scientific Graphing System Vers. 2.0, Jandel Corp.).

T1 sequence (Q13526 whole entry): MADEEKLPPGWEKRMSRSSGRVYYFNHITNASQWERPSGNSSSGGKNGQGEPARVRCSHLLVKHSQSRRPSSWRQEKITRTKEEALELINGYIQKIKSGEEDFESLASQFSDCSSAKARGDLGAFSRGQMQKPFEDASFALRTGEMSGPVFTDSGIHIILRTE

Row | Ki | Structure (SMILES)
1 | 7 µM | O=C1Oc2ccccc2C12Cc1ccccc1C2 [1′,2′,3′H-sprio[indene-2′,3-(3H-benzofurane-2-one)]]
2 | 27 µM | COC(=O)C1(c2ccccc2O)CCc2ccccc21 (stereo not drawn)
3 | 6 µM | COc1ccc2c(c1)C1(CCc3ccccc31)C(=O)O2 (stereo not drawn) [1′,2′,3′H-spiro[indene-3′,3-(3H-5-methoxy-benzofurane-2-one)]]
4 | 150 µM | O=C1Oc2ccccc2C12CC=CC2 [1′,2′,3′H-spiro[cyclopentene-3′,3-(3H-benzofurane-2-one)]]
5 | 50 µM | COc1ccc(OC)c(C(=O)C2CCc3ccccc32)c1 (stereo not drawn) [1-(2,5-dimethoxyphenyl)-1′-indane-1′-1-methanone]

Row | Structure (SMILES) | Ki
6 | COc1ccc2c(c1)C1(CC(C)c3ccccc31)C(=O)O2 (stereo not drawn) [1′,2′,3′H-sprio[1′-methyl-indene-3′,3-(3H-5-methoxy-benzofurane-2-one)]] | 20 µM
